≈ marks a conversion by molar mass, not a printed value. Calls of active or inactive are those of the source. No cut-off for these calls is given here.
Key:
Jurkat = assay: Cytotoxicity against human Jurkat cells after 48 hrs by cell titer-blue assay; format: functional, cell-based
CCRF-CEM [1] = assay: Ratio of GI50 for human CCRF-CEM/C2 cells to GI50 for human CCRF-CEM cells; format: functional
[2] = Cytotoxicity against human CCRF-CEM/C2 cells after 48 hrs by cell titer-blue assay; format: functional, cell-based
[3] = Cytotoxicity against human HL60/MX2 cells after 48 hrs by cell titer-blue assay; format: functional, cell-based; settings: HL60/MX2, 48 h
CCRF-CEM [4] = assay: Cytotoxicity against human CCRF-CEM cells after 48 hrs by cell titer-blue assay; format: functional, cell-based
HL-60 [5] = assay: Cytotoxicity against human HL60 cells after 48 hrs by cell titer-blue assay; format: functional, cell-based; settings: HL-60, 48 h
MCF7 = assay: Cytotoxicity against human MCF7 cells after 48 hrs by cell titer-blue assay; format: functional, cell-based; settings: MCF7, 48 h
NALM-6 [6] = assay: Induction of apoptosis in human NALM6 cells assessed as caspase 3/7 activation at 0.4 to 100 uM after 24 hrs by fluorescence assay; format: functional, cell-based
DU-145 = assay: Cytotoxicity against human DU145 cells after 48 hrs by cell titer-blue assay; format: functional, cell-based; settings: DU-145, 48 h
HCT-116 = assay: Cytotoxicity against human HCT116 cells after 48 hrs by cell titer-blue assay; format: functional, cell-based; settings: HCT-116, 48 h
Bcl-2-like protein 1 = Bcl-2-like protein 1 (Homo sapiens, UniProt Q07817); assay: Inhibition of recombinant His6-tagged Bcl-XL expressed in Escherichia coli BL21 (DE3) and Flu-Bak peptide interaction by fluorescence polarization assay
NALM-6 [7] = assay: Induction of apoptosis in human NALM6 cells assessed as PARP cleavage at 50 uM after 24 hrs; format: functional, cell-based
NALM-6 [8] = assay: Cytotoxicity against human NALM6 cells after 48 hrs by cell titer-blue assay; format: functional, cell-based
NCI-H460 = assay: Cytotoxicity against human H460 cells after 48 hrs by cell titer-blue assay; format: functional, cell-based; settings: NCI-H460, 48 h
REH = assay: Cytotoxicity against human REH cells after 48 hrs by cell titer-blue assay; format: functional, cell-based
[9] = Cytotoxicity against mouse Hepa-1c1c7 cells after 48 hrs by cell titer-blue assay; format: functional, cell-based; settings: Hepa-1c1c7, 48 h
[10] = Cytotoxicity against human SU-8686 cells after 48 hrs by cell titer-blue assay; format: functional, cell-based; settings: SU.86.86, 48 h
[11] = molecular target: Induced myeloid leukemia cell differentiation protein Mcl-1 (Homo sapiens, UniProt Q07820); assay: Inhibition of recombinant His6-tagged MCL1 (171-326) expressed in Escherichia coli BL21 (DE3) and Flu-Bak peptide interaction by fluorescence polarization assay
NALM-6 [12] = assay: Induction of apoptosis in human NALM6 cells assessed as PARP cleavage at 3.125 to 25 uM after 24 hrs; format: functional, cell-based
HL-60 [13] = assay: Ratio of GI50 for human HL60/MX2 cells to GI50 for human HL60 cells; format: functional
[14] = Homo sapiens, NALM-6, 48 h, read-out: IC50
[15] = Homo sapiens, REH, 48 h, read-out: IC50

Bcl-2-like protein 1, sequence (Q07817 whole entry): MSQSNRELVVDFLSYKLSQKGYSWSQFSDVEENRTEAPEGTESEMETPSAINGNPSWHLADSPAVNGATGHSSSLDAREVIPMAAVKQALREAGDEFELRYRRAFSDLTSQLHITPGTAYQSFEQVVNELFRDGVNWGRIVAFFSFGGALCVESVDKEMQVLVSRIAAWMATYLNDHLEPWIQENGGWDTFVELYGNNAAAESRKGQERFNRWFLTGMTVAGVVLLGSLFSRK
Induced myeloid leukemia cell differentiation protein Mcl-1, sequence (Q07820 whole entry): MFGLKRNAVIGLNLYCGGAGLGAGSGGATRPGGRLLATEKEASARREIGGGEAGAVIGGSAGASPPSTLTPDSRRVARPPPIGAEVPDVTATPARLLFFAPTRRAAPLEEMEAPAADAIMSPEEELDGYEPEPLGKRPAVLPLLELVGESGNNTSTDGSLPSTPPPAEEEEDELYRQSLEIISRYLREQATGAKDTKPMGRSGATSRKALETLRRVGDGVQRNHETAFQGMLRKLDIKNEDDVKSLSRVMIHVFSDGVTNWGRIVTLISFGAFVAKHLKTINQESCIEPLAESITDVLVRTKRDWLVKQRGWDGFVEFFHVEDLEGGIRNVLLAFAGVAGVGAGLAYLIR

CCOC(=O)CC1C(C(=O)OCC)=C(N)Oc2ccc(-c3cc(O)cc(O)c3)cc21 (centres undefined)
IC50 (Jurkat): 18.3 µM

CCOC(=O)C1=C(N)Oc2ccc(-c3ccccc3)cc2C1CC(=O)N(CC)CC (centres undefined)
IC50 (Jurkat): 49.6 µM

CCOC(=O)C1=C(N)Oc2ccc(-c3ccccc3)cc2C1CC(=O)N1CCOCC1 (centres undefined)
IC50 (Jurkat): > 100 µM

CC(C)OC(=O)CC1C(C(=O)OC(C)C)=C(N)Oc2ccc(-c3ccccc3)cc21 (centres undefined)
IC50 (Jurkat): 38.7 µM

CCOC(=O)CC1C(C(=O)OCC)=C(N)Oc2c(-c3ccccc3)cccc21 (centres undefined)
IC50 (Jurkat): 49.8 µM

CCOC(=O)CC1C(C(=O)OCC)=C(N)Oc2ccccc21 (centres undefined)
IC50 (Jurkat): 91.4 µM

CC[C@@]1(O)C(=O)OCc2c1cc1n(c2=O)Cc2cc3ccccc3nc2-1 [CAMPTOTHECIN]
RatioGI50 (CCRF-CEM [1]): 1879 | GI50 [2]: 0.0432 µM

CCCc1ccc2c(c1)C(CC(=O)OCC)C(C(=O)OCC)=C(N)O2 (centres undefined)
IC50 (Jurkat): 57.3 µM

CCOC(=O)CC1C(C(=O)OCC)=C(N)Oc2cc(-c3ccccc3)ccc21 (centres undefined)
IC50 (Jurkat): 51.6 µM

CC[C@]1(O)C[C@H]2CN(CCc3c([nH]c4ccccc34)[C@@](C(=O)OC)(c3cc4c(cc3OC)N(C=O)[C@H]3[C@@](O)(C(=O)OC)[C@H](OC(C)=O)[C@]5(CC)C=CCN6CC[C@]43[C@@H]65)C2)C1 [VINCRISTINE]
EC50 [2]: 0.367 µM | EC50 [3]: 0.0609 µM | EC50 (CCRF-CEM [4]): 0.597 µM

CCOC(=O)CC1C(C(=O)OCC)=C(N)Oc2ccc(-c3cc(O)cc(OC)c3)cc21 (centres undefined)
IC50 (Jurkat): 4.2 µM

CCOC(=O)CC1C(C(=O)OCC)=C(N)Oc2ccc(Br)cc21 (centres undefined)
IC50 (Jurkat): 57.3 µM

Nc1ccn([C@@H]2O[C@H](CO)[C@@H](O)[C@@H]2O)c(=O)n1 [CYTARABINE]
EC50 (HL-60 [5]): 0.657 µM | EC50 [2]: 0.0228 µM | EC50 [3]: 0.261 µM | EC50 (CCRF-CEM [4]): 0.00561 µM

CCOC(=O)CC1C(C(=O)OCC)=C(N(C(C)=O)C(C)=O)Oc2ccc(-c3ccccc3)cc21 (centres undefined)
IC50 (Jurkat): 70.6 µM

CCOC(=O)CC1C(C(=O)OCC)=C(N)Oc2ccc(-c3ccccc3)cc21 (centres undefined)
IC50 (MCF7): 18.9 µM | Activity (NALM-6 [6]): Dose-dependent effect | IC50 (DU-145): 14.7 µM | IC50 (HCT-116): 18.5 µM | Ki (Bcl-2-like protein 1): 344 µM | Activity (NALM-6 [7]): inactive | IC50 (NALM-6 [8]; [14]): 44.2 µM | IC50 (NCI-H460): 15.5 µM | IC50 (REH; [15]): 20.2 µM | IC50 [9]: 22.8 µM | IC50 [10]: 18.7 µM

CCOC(=O)CC1C(C(=O)OCC)=C(N)Oc2ccc(-c3cccc4ccccc34)cc21 (centres undefined)
IC50 (Jurkat): 5.83 µM

COc1cccc2c1C(=O)c1c(O)c3c(c(O)c1C2=O)C[C@@](O)(C(=O)CO)C[C@@H]3O[C@H]1C[C@H](N)[C@H](O)[C@H](C)O1 [DOXORUBICIN]
EC50 (HL-60 [5]): 1.51 µM | EC50 [2]: 3.08 µM | EC50 [3]: 8.05 µM | EC50 (CCRF-CEM [4]): 0.465 µM

CCOC(=O)C1=C(N)Oc2ccc(-c3ccccc3)cc2C1CC(=O)N1CCCCC1 (centres undefined)
IC50 (Jurkat): 58.5 µM

CCOC(=O)CC1C(C(=O)OCC)=C(NC(C)=O)Oc2ccc(-c3ccccc3)cc21 (centres undefined)
IC50 (Jurkat): 67.7 µM

CCOC(=O)CC1C(C(=O)OCC)=C(N)Oc2cccc(-c3ccccc3)c21 (centres undefined)
IC50 (Jurkat): 44.3 µM

CCOC(=O)CC1C(C(=O)OCC)=C(N)Oc2ccc(-c3ccc(C(C)(C)C)cc3)cc21 (centres undefined)
IC50 (Jurkat): 35.5 µM

CN(C)CC[C@H](CSc1ccccc1)Nc1ccc(S(=O)(=O)NC(=O)c2ccc(N3CCN(Cc4ccccc4-c4ccc(Cl)cc4)CC3)cc2)cc1[N+](=O)[O-] [ABT 737]
IC50 (MCF7): 21.3 µM | IC50 (Jurkat): 1.38 µM | IC50 (DU-145): 27.6 µM | IC50 (HCT-116): 4.06 µM | IC50 (NALM-6 [8]; nalm-6): Not Active | IC50 (NCI-H460): 8.03 µM | IC50 (REH; reh): Not Active | IC50 [9]: 8.68 µM | IC50 [10]: 4.24 µM

CCOC(=O)CC1C(C(=O)OCC)=C(N)Oc2ccc(-c3cc(OC)cc(OC)c3)cc21 (centres undefined)
IC50 (MCF7): 15.5 µM | Activity (NALM-6 [6]): Dose-dependent effect | IC50 (Jurkat): 1.2 µM | IC50 (DU-145): 11.5 µM | IC50 (HCT-116): 8.83 µM | Ki (Bcl-2-like protein 1): 1240 µM | IC50 (NALM-6 [8]; [14]): 4.74 µM | IC50 (NCI-H460): 5.14 µM | IC50 (REH; [15]): 4.16 µM | IC50 [9]: 10.9 µM | IC50 [10]: 7.03 µM | Ki [11]: 42000 µM | Activity (NALM-6 [12]): Dose-dependent effect

CCOC(=O)CC1C(C(=O)OCC)=C(N)Oc2ccc(-c3cc(OC)c(OC)c(OC)c3)cc21 (centres undefined)
IC50 (Jurkat): 13.6 µM

Cc1cc2c(C(C)C)c(O)c(O)c(C=O)c2c(O)c1-c1c(C)cc2c(C(C)C)c(O)c(O)c(C=O)c2c1O [GOSSYPOL]
Ki [11]: 6.54 µM

Nc1nc2[nH]cnc2c(=S)[nH]1 [THIOGUANINE]
EC50 (HL-60 [5]): 3.9 µM | EC50 [2]: 0.942 µM | EC50 [3]: 3.65 µM | EC50 (CCRF-CEM [4]): 0.87 µM

CCOC(=O)C1=C(N)Oc2ccc(-c3ccccc3)cc2C1CC(=O)N1CCNCC1 (centres undefined)
IC50 (Jurkat): 53.7 µM

CCOC(=O)CC1C(C#N)=C(N)Oc2ccc(-c3ccccc3)cc21 (centres undefined)
IC50 (Jurkat): 52.5 µM

O=C1c2c(O)ccc(O)c2C(=O)c2c(NCCNCCO)ccc(NCCNCCO)c21 [MITOXANTRONE]
RatioGI50 (HL-60 [13]): 23 | GI50 (HL-60 [5]): 0.192 µg/mL (≈ 0.432 µM) | GI50 [3]: 4.42 µg/mL (≈ 9.94 µM)

CCOC(=O)CC1C(C(=O)OCC)=C(N)Oc2ccc(-c3ccc4ccccc4c3)cc21 (centres undefined)
IC50 (Jurkat): 18.7 µM

From ChEMBL document CHEMBL1153537, “Structure-activity relationship and molecular mechanisms of ethyl 2-amino-4-(2-ethoxy-2-oxoethyl)-6-phenyl-4h-chromene-3-carboxylate (sha 14-1) and its analogues” (J Med Chem, 2009)
